Assay results: patent US20250025443A1, “COMPOUNDS AND METHODS FOR TREATING CORONA VIRUSES” (CLEAR CREEK BIO, INC., priority 2021, published 2025)

What follows are compounds tested against SARS-CoV-2 Papain-Like Protease (PLpro) (Severe acute respiratory syndrome coronavirus 2 (2019-nCoV) (SARS-CoV-2), UniProt P0DTD1) (assay: biochemical). Settings: PLpro enzymatic fluorescence assay; class symbols; read-out: PLpro IC50.
For `COc1ccccc1C1(NC(=O)c2cc(OCCN(C)C)ccc2C)CC1` [Compound 277, 5-(2-(Dimethylamino)ethoxy)-N-(1-(2-methoxyphenyl)cyclopropyl)-2-methylbenzamide], the IC50 was over 5000 nM. `COc1cccc(C2(NC(=O)c3cc(OCCN(C)C)ccc3C)CC2)c1` [Compound 278, 5-(2-(Dimethylamino)ethoxy)-N-(1-(3-methoxyphenyl)cyclopropyl)-2-methylbenzamide] gave an IC50 of over 5000 nM.

Same assay, conditions: SARS-CoV-2 PLpro enzymatic fluorescence assay; read-out: PLpro IC50
For `COCc1cc2cc(C)c(C(=O)NC3(c4cccc5ccccc45)CC3)cc2[nH]1` [Compound 240, 2-(Methoxymethyl)-5-methyl-N-(1-(naphthalen-1-yl)cyclopropyl)-1H-indole-6-carboxamide], the IC50 was 100 to 1000 nM. `Cc1cc2cc(CN)[nH]c2cc1C(=O)NCc1cccc2ccccc12` [Compound 241, 2-(Aminomethyl)-5-methyl-N-(naphthalen-1-ylmethyl)-1H-indole-6-carboxamide] showed an IC50 of over 5000 nM. `Cc1ccc(N)cc1C(=O)NS(=O)(=O)c1cccc2ccccc12` [Compound 242, 5-Amino-2-methyl-N-(naphthalen-1-ylsulfonyl)benzamide] showed an IC50 of over 5000 nM. `Cc1cc2c(cc1C(=O)NC1(c3cccc4ccccc34)CC1)NC(=O)C2(C)C` [Compound 243, 3,3,5-Trimethyl-N-(1-(naphthalen-1-yl)cyclopropyl)-2-oxoindoline-6-carboxamide] was tested, and the IC50 was 1000 to 5000 nM. In the case of `Cc1cc2cc(CN)[nH]c2cc1C(=O)NC1(c2ccc(-c3ccccc3)cc2)CC1` [Compound 244, N-(1-([1,1′-Biphenyl]-4-yl)cyclopropyl)-2-(aminomethyl)-5-methyl-1H-indole-6-carboxamide], the IC50 is reported as over 5000 nM. `Cc1cc2sc(CN)nc2cc1C(=O)NC1(c2cccc3ccccc23)CC1` [Compound 245, 2-(Aminomethyl)-6-methyl-N-(1-(naphthalen-1-yl)cyclopropyl)benzo[d]thiazole-5-carboxamide] was tested, and the IC50 was under 100 nM. For `Cc1cc2cc(CN)[nH]c2cc1C(=O)NC1(c2ccccc2)CC1` [Compound 246, 2-(Aminomethyl)-5-methyl-N-(1-phenylcyclopropyl)-1H-indole-6-carboxamide], the IC50 was over 5000 nM. `Cc1ccc(OCCNCC(F)(F)F)cc1C(=O)NC1(c2cccc3ccccc23)CC1` [Compound 247, 2-Methyl-N-(1-(naphthalen-1-yl)cyclopropyl)-5-(2-((2,2,2-trifluoroethyl)amino)ethoxy)benzamide] was tested, and the IC50 was 100 to 1000 nM. `Cc1cc2cc(CN)[nH]c2cc1C(=O)NC1(c2ccc3ccccc3c2)CC1` [Compound 248, 2-(Aminomethyl)-5-methyl-N-(1-(naphthalen-2-yl)cyclopropyl)-1H-indole-6-carboxamide] gave an IC50 of 1000 to 5000 nM. For `Cc1cc2c(cc1C(=O)NC1(c3cccc4ccccc34)CC1)NC(=O)C2` [Compound 249, 5-Methyl-N-(1-(naphthalen-1-yl)cyclopropyl)-2-oxoindoline-6-carboxamide], the IC50 was 100 to 1000 nM. For `Cc1ccc(OCCN(C)C)cc1C(=O)NC1(c2ccccc2Br)CC1` [Compound 251, N-(1-(2-Bromophenyl)cyclopropyl)-5-(2-(dimethylamino)ethoxy)-2-methylbenzamide], the IC50 was 100 to 1000 nM. For `Cc1ccc(OCCN(C)C)cc1C(=O)NC1(c2cccc(F)c2)CC1` [Compound 252, 5-(2-(Dimethylamino)ethoxy)-N-(1-(3-fluorophenyl)cyclopropyl)-2-methylbenzamide], the IC50 was over 5000 nM. Compound `Cc1ccc(C2(NC(=O)c3cc(OCCN(C)C)ccc3C)CC2)cc1` [Compound 253, 5-(2-(Dimethylamino)ethoxy)-2-methyl-N-(1-(p-tolyl)cyclopropyl)benzamide] has an IC50 of over 5000 nM. With `Cc1ccc(OCCN2CCCCC2)cc1C(=O)NC1(c2cccc3ccccc23)CC1` [Compound 254, 2-Methyl-N-(1-(naphthalen-1-yl)cyclopropyl)-5-(2-(piperidin-1-yl)ethoxy)benzamide] the IC50 was under 100 nM. In the case of `Cc1cccc(C2(NC(=O)c3cc(OCCN(C)C)ccc3C)CC2)c1` [Compound 255, 5-(2-(Dimethylamino)ethoxy)-2-methyl-N-(1-(m-tolyl)cyclopropyl)benzamide], the IC50 is reported as over 5000 nM. `Cc1ccc(OCC2(N)CC2)cc1C(=O)NC1(c2cccc3ccccc23)CC1` [Compound 256] showed an IC50 of under 100 nM. Compound `Cc1ccc(C(N)=O)cc1C(=O)NC1(c2cccc3ccccc23)CC1` [Compound 257] has an IC50 of 100 to 1000 nM. In the case of `Cc1ccc(OCCN(C)C)cc1C(=O)NC1(c2ccc(Br)cc2)CC1` [Compound 258, N-(1-(4-Bromophenyl)cyclopropyl)-5-(2-(dimethylamino)ethoxy)-2-methylbenzamide], the IC50 is reported as over 5000 nM. `Cc1ccc(OCCN(C)C)cc1C(=O)NC1(c2ccc(F)cc2)CC1` [Compound 259, 5-(2-(Dimethylamino)ethoxy)-N-(1-(4-fluorophenyl)cyclopropyl)-2-methylbenzamide] was tested, and the IC50 was over 5000 nM. Work on `Cc1cc2cc(C3COCCN3)[nH]c2cc1C(=O)NC1(c2cccc3ccccc23)CC1` (stereo not shown) [Compound 260, 5-Methyl-2-(morpholin-3-yl)-N-(1-(naphthalen-1-yl)cyclopropyl)-1H-indole-6-carboxamide] yielded an IC50 of 100 to 1000 nM. With `Cc1ccc(OCCN(C)C)cc1C(=O)NC1(c2cccc(Br)c2)CC1` [Compound 261, N-(1-(3-Bromophenyl)cyclopropyl)-5-(2-(dimethylamino)ethoxy)-2-methylbenzamide] the IC50 was 1000 to 5000 nM. Work on `Cc1cc2c(cc1C(=O)NC1(c3cccc4ccccc34)CC1)NCC2(C)C` [Compound 262, 3,3,5-Trimethyl-N-(1-(naphthalen-1-yl)cyclopropyl)indoline-6-carboxamide] yielded an IC50 of 100 to 1000 nM. Work on `Cc1ccc(OCC2CCCN2)cc1C(=O)NC1(c2cccc3ccccc23)CC1` (stereo not shown) [Compound 263, 2-Methyl-N-(1-(naphthalen-1-yl)cyclopropyl)-5-(pyrrolidin-2-ylmethoxy)benzamide] yielded an IC50 of under 100 nM. `Cc1ccc(OCCN(C)C)cc1C(=O)NC1(c2cccc(C3=CCCC3)c2)CC1` [Compound 264, N-(1-(3-(Cyclopent-1-en-1-yl)phenyl)cyclopropyl)-5-(2-(dimethylamino)ethoxy)-2-methylbenzamide] gave an IC50 of 1000 to 5000 nM. `Cc1ccc(OC2CC(N)C2)cc1C(=O)NC1(c2cccc3ccccc23)CC1` (stereo not shown) [Compound 265, 5-(3-Aminocyclobutoxy)-2-methyl-N-(1-(naphthalen-1-yl)cyclopropyl)benzamide] was tested, and the IC50 was 100 to 1000 nM. Work on `Cc1ccc(OCCN(C)C)cc1C(=O)NC1(c2ccccc2-c2ccncc2)CC1` [Compound 266, 5-(2-(Dimethylamino)ethoxy)-2-methyl-N-(1-(2-(pyridin-4-yl)phenyl)cyclopropyl)benzamide] yielded an IC50 of over 5000 nM. In the case of `Cc1ccc(OCCN(C)C)cc1C(=O)NC1(c2ccccc2-c2ccccc2)CC1` [Compound 267, N-(1-([1,1′-Biphenyl]-2-yl)cyclopropyl)-5-(2-(dimethylamino)ethoxy)-2-methylbenzamide], the IC50 is reported as over 5000 nM. `Cc1ccc(OC2CCCNC2)cc1C(=O)NC1(c2cccc3ccccc23)CC1` (stereo not shown) [Compound 268, 2-Methyl-N-(1-(naphthalen-1-yl)cyclopropyl)-5-(piperidin-3-yloxy)benzamide] showed an IC50 of 100 to 1000 nM. For `CN(C)CCOc1ccc(Br)c(C(=O)NC2(c3cccc4ccccc34)CC2)c1` [Compound 269, 2-Bromo-5-(2-(dimethylamino)ethoxy)-N-(1-(naphthalen-1-yl)cyclopropyl)benzamide], the IC50 was 100 to 1000 nM. `Cc1ccc(OCCN(C)C)cc1C(=O)NC1(c2cccc(Oc3ccccc3)c2)CC1` [Compound 270, 5-(2-(Dimethylamino)ethoxy)-2-methyl-N-(1-(3-phenoxyphenyl)cyclopropyl)benzamide] gave an IC50 of over 5000 nM. For `COc1ccc(C2(NC(=O)c3cc(OCCN(C)C)ccc3C)CC2)cc1` [Compound 271, 5-(2-(Dimethylamino)ethoxy)-N-(1-(4-methoxyphenyl)cyclopropyl)-2-methylbenzamide], the IC50 was over 5000 nM. With `Cc1ccc(OCCN(C)C)cc1C(=O)NC1(c2ccccc2F)CC1` [Compound 272, 5-(2-(Dimethylamino)ethoxy)-N-(1-(2-fluorophenyl)cyclopropyl)-2-methylbenzamide] the IC50 was over 5000 nM. `Cc1cc2cc(C(C)N)[nH]c2cc1C(=O)NC1(c2cccc3ccccc23)CC1` (stereo not shown) [Compound 273, 2-(1-Aminoethyl)-5-methyl-N-(1-(naphthalen-1-yl)cyclopropyl)-1H-indole-6-carboxamide] was tested, and the IC50 was under 100 nM. Work on `Cc1ccc(OCC2CCN2)cc1C(=O)NC1(c2cccc3ccccc23)CC1` (stereo not shown) [Compound 274, 5-(Azetidin-2-ylmethoxy)-2-methyl-N-(1-(naphthalen-1-yl)cyclopropyl)benzamide] yielded an IC50 of under 100 nM. In the case of `Cc1ncc(OCCN(C)C)cc1C(=O)NC1(c2cccc3ccccc23)CC1` [Compound 275, 5-(2-(Dimethylamino)ethoxy)-2-methyl-N-(1-(naphthalen-1-yl)cyclopropyl)nicotinamide], the IC50 is reported as 1000 to 5000 nM. Work on `Cc1ccc(OCCN(C)C)cc1C(=O)NC1(c2cccc(C3CCCC3)c2)CC1` [Compound 276, N-(1-(3-Cyclopentylphenyl)cyclopropyl)-5-(2-(dimethylamino)ethoxy)-2-methylbenzamide] yielded an IC50 of over 5000 nM. `Cc1ccc(OCCN(C)C)cc1C(=O)NC1(c2ccc(Oc3ccccc3)cc2)CC1` [Compound 279, 5-(2-(Dimethylamino)ethoxy)-2-methyl-N-(1-(4-phenoxyphenyl)cyclopropyl)benzamide] was tested, and the IC50 was 1000 to 5000 nM. `Cc1cc2nc(CN)[nH]c2cc1C(=O)NC1(c2cccc3ccccc23)CC1` [Compound 280, 2-(Aminomethyl)-5-methyl-N-(1-(naphthalen-1-yl)cyclopropyl)-1H-benzo[d]imidazole-6-carboxamide] gave an IC50 of 100 to 1000 nM. In the case of `Cc1cc2cc(CN)[nH]c2cc1C(=O)NC(C)(C)c1cccc2ccccc12` [Compound 281], the IC50 is reported as over 5000 nM. Compound `Cc1ccc(OCCN(C)C)cc1C(=O)NC1(c2ccccc2C)CC1` [Compound 282, 5-(2-(Dimethylamino)ethoxy)-2-methyl-N-(1-(o-tolyl)cyclopropyl)benzamide] has an IC50 of 1000 to 5000 nM. `Cc1ccc(OCC2CCCN2C)cc1C(=O)NC1(c2cccc3ccccc23)CC1` (stereo not shown) [Compound 283, 2-Methyl-5-((1-methylpyrrolidin-2-yl)methoxy)-N-(1-(naphthalen-1-yl)cyclopropyl)benzamide] gave an IC50 of under 100 nM.
